Reference: patent publication US5759768A, “Assays for factors affecting circularization of DNA, assays for factors affecting DNA integration, factors, and uses thereof” (priority 1995, dated 1998)

Assays:
viral DNA = assay: PCR analysis of circular viral DNA formed in vitro; assay type: biochemical, HIV-1
Experimental: The following oligonucleotides were used for PCR: PBS, 5'-GTCGCCGCCCCTCGCCTC-3'(SEQ ID No. 1); tat, 5'-[…]-3'(SEQ ID No. 2); nef, 5'-[…]-3'(SEQ ID No. 3); R1, 5'-[…]-3'(SEQ ID No. 4); R2, 5'-[…]-3'(SEQ ID No. […]). One hundred microliter reactions contained 10 mM Tris hydrochloride (pH 8.3), 50 mM KCl, 1.5 mM MgCl2, 0.001% (w/v) gelatin, 200 μM each dATP, dCTP, dGTP, and dTTP, 1 μM each of the indicated primer, and 2.5 units of AmpliTaq recombinant Taq DNA polymerase (Perkin Elmer Cetus Co., Norwalk, Conn.). For amplification of viral DNA from cytoplasmic extracts, each reaction contained approximately 1/30 the amount of DNA from a 3 ml extract. For amplification of viral DNA from Hirt extractions, each reaction contained DNA from the equivalent of 2×10^6 cells. An initial denaturation step at 98° C. was performed for 10 minutes. Thirty cycles of the PCR reaction were then performed with an annealing temperature of 60° C. for 1 minute, an extension temperature of 72° C. for 5 minutes, and a denaturation temperature of 95° C. for 1 minute. Reaction products were visualized following electrophoresis on 1% agarose gel containing ethidium bromide. […]
Additional rounds of PCR amplification were necessary to detect the presence of a DNA fragment corresponding to the 2-LTR junction fragment when viral DNA from Hirt supernatants of infected cells were used, presumably due to the lower concentration of 2-LTR circles as compared to 1-LTR circles in these preparations (data not shown). Similarly, 2-LTR junction fragments were not readily detected among the amplification products of circular viral DNA formed in vitro, most likely due to the low concentration of simple 2-LTR circles and competition by the other forms of circular viral DNA (1-LTR circles and 2-LTR circles formed by autointergration) present at much higher concentrations. […]

[1] = tested on: purified linear viral DNA; assay: Circularization of purified linear viral DNA in cytoplasmic extracts of uninfected SupT1 cells; assay type: biochemical, HIV-1; settings: 1 mM, 37° C., 45 min
Experimental: Further evidence of a role for host proteins in the formation of the 1-LTR and simple 2-LTR circular forms of viral DNA was obtained by testing the ability of uninfected cell extracts to mediate the circularization of purfied viral DNA. Linear viral DNA was prepared from cytoplasmic extracts of uninfected cells by SDS-proteinase K treatment and phenol extraction. The purfied DNA was added to cytoplasmic extracts prepared form uninfected SupT1 cells, in the presence or absence of added ATP.
Linear viral DNA was purified from cytoplasmic extracts of cells 4 hours post-infection as described above. In FIG. 22, a purified linear viral DNA was added to cytoplasmic extracts from uninfected SupT1 cells and incubated at 37° C. for 45 minutes. The uninfected SupT1 cells used for the preparation of extracts were either untreated (lanes 3-11) or cultured in the presence of 10 ng/ml phorbol 12-myristate 13-acetate for six hours prior to extraction (lane 2). […] Lanes 2-11: reaction products following incubation of purified linear viral DNA in uninfected extracts containing 1 mM ATP (lanes 2 and 3), nothing added (lane 4), 1 mM dATP (lane 5), 1 mM UTP (lane 6), 1 mM CTP (lane 7), 1 mM GTP (lane 8), 1 mM ATPγS (lane 9), or 1 mM ADP (lane 10). Lane 11: uninfected SupT1 cell extract was treated with proteinase K for 10 minutes at 37° C., then linear viral DNA was added and incubation continued for 45 minutes. In FIG. 23, lanes 1, 2, 4 and 5: purified linear viral DNA was incubated with T4 DNA ligase (lane 1), T4 polynucleotide kinase and T4 DNA ligase (lane 2), Klenow fragment of E. coli DNA polymerase I and T4 DNA ligase […], or Klenow fragment, T4 polynucleotide kinase, and T4 DNA ligase (lane 4). Lanes 3 and 6: in vitro circularization reaction products generated in cell extracts, included as size standards. Lane 3: cytoplasmic extracts from infected cells were incubated with […] for 45 minutes; lane 6: purified linear viral DNA was incubated with cytoplasmic extract from uninfected SupT1 cells in the presence of 1 mM ATP for 45 minutes. The possibility that a host DNA ligase was responsible for the formation of the simple 2-LTR circles was examined by testing the ability of phage T4 ligase to catalyze the circularization of linear viral DNA. […] Restriction endonuclease analysis of the reaction products formed in the presence of both Klenow fragment and T4 DNA ligase confirmed the formation of new 2-LTR junctions (not shown). […] This observation is consistent with previous reports that linear viral DNA prepared from cells infected with the murine leukemia virus [Fujiwara and Mizuuchi, Cell, 54:497-504 (1988) and HIV-1 [Pauza, Virology, 179:886-887 (1990)] consists of a mixture of molecules that are either blunt-ended or recessed by two nucleotides at each 3'-terminus. The removal of the two terminal nucleotides is mediated by the viral integrase as a necessary step in the process of integration [Roth et al., Cell 58: 47-54 (1989)]. […] This would explain the requirement of DNA polymerase for the subsequent joining of the ends of viral DNA by DNA ligase.

| SMILES | PCR amplification product (2-LTR junction, R region primers) (viral DNA; SalI digested circular DNA formed with added ATP) | PCR amplification products (PBS and tat primers, autointegration) (viral DNA; extracts incubated with 1 mM ATP) | PCR amplification product (1-LTR circle junction) (viral DNA; extracts treated with 1 mM ATP, PBS and nef primers) | 1-LTR circles from purified linear viral DNA [1] | 2-LTR circles from purified linear viral DNA [1] | circularization of purified linear viral DNA [1] | ability to substitute for ATP in formation of simple 2-LTR circles [1] |
| --- | --- | --- | --- | --- | --- | --- | --- |
| Nc1ncnc2c1ncn2[C@@H]1O[C@H](COP(=O)(O)OP(=O)(O)OP(=O)(O)O)[C@@H](O)[C@H]1O [ATP, adenosine triphosphate] | A DNA fragment of the same size was detected | a mixture of DNA fragments of heterogeneous lengths | a DNA fragment having the size expected for a 1-LTR circle junction was generated | The most abundant of the new DNA forms comigrated with the 1-LTR circular DNA molecules | a small amount of product migrating as 2-LTR circles could also be detected | New, slowly migrating DNA species were detected | – |
| Nc1ncnc2c1ncn2[C@@H]1O[C@H](COP(=O)(O)OP(=O)(O)OP(O)(O)=S)[C@@H](O)[C@H]1O [ATPγS] | – | – | – | – | – | failed to induce the circularization of purified linear viral DNA | None of the other nucleoside triphosphates tested, nor ATPγS, was able to substitute for ATP |
